The test system of assay [1] is HNF4A-YFP control and PB organoids. As to the kind of experiment: DAPT treatment of HNF4A-YFP organoids after Ly29 withdrawal. The class given is cell-based, human. The following applies: DAPT 48 hours between days 12 and 14, control and PB conditions. Here is the method: To determine whether HNF4A^+ cell differentiation is Notch-signaling dependent, the study treated HNF4A-YFP control and PB organoids with DAPT for 48 hours between days 12 and 14, after Ly29 withdrawal (FIGS. 16E-16F). […] In DAPT conditions, YFP− structures still developed but were HNF1B^+/JAG1^+/HNF4A− (FIG. 16E), indicating Notch signaling is required for the transition from HNF1B^+ to HNF4A^+ cells, as anticipated. PB organoids contained more HNF4A^+ structures than other conditions, and controls formed more HNF4A^+ structures than DAPT-treated conditions (pvalues <0.01) (FIG. 16G).

Assay [2] concerns E12.5 mouse kidney explants. The experiment in a line: Mouse kidney organ culture with inhibitors, immunofluorescence. Conditions: mouse kidney explants cultured 48 hours with inhibitor(s). The format is cell-based. As for the experimental part:
Mouse kidney explants and culture: Pregnant female Swiss Webster mice were euthanized on day E12.5 of pregnancy via CO2 following appropriate University of Southern California IACUC approved protocol. Embryos were removed and placed into PBS before dissecting out kidneys for explant culture as described below. Mouse kidney organ culture: Kidneys were dissected from E12.5 embryos and cultured for 48 hours at 37° C./5% CO2 in DMEM. Treatment condition culture media was initially supplemented with 20 μM LY294002, 2 μM DAPT (Tocris 2634), or both, before 48 hours of culture, following prior studies. After culture, mouse kidney explants were prepared for immunofluorescent analyses as described below for organoids.

Assay [3] relates to human iPSC-derived kidney organoid nephrons. As to the kind of experiment: Whole-mount immunofluorescence quantification of organoid nephrons. The following applies: day 12, cultured with DAPT, either with or without Ly29. The class given is cell-based.

Entries after “also recorded” stand apart in the source; their conditions may differ.

Turning to `C[C@H](NC(=O)Cc1cc(F)cc(F)c1)C(=O)N[C@H](C(=O)OC(C)(C)C)c1ccccc1` [DAPT], the HNF4A-YFP entry in assay [1] is listed as “reduced HNF4A-YFP”. Moreover, in assay [2], the Hnf4a expression entry was “blocked Hnf4a expression”. Moreover, the “nephron elongation and HNF1B/HES1 upregulation” value in assay [3] was “did not elongate or further upregulate HNF1B; also recorded: did not upregulate HNF1B or HES1”.

For the origin of these results see patent US20250368963A1, “PROXIMAL-BIASED KIDNEY ORGANOIDS” (UNIVERSITY OF SOUTHERN CALIFORNIA, priority 2024, published 2025).
